Laboratory results reported in patent US4490364A, “CCK Agonists II” (The Salk Institute for Biological Studies, priority 1983, dated 1984).
Non-standard residues stand in square brackets, D forms with d. Residues, ends and D or L forms follow the SMILES beside them. sY = N[C@@H](Cc1ccc(OS(=O)(=O)O)cc1)C(=O)O

Columns and labels:
[1] = system: mouse; experiment: anticonvulsive effect against picrotoxin-induced seizures in the mouse; type: in vivo; settings: peptide about 0.8 micromoles per kg parenterally, then picrotoxin i.p., relative to CCK(1-8) = 100%
Method: The anticonvulsive effect is measured by the method as generally described in The European J. of Pharm., 65, 297 (1980). More specifically, a mouse is first injected parenterally with the peptide being tested with a single dose equal to about 0.8 micromoles per kilogram of body weight. Thereafter, picrotoxin is injected i.p. in an amount equal to about […] of body weight. The parameters that are measured: time until first tremor, time until first clonic seizure, time until first tonic seizure and time of latentia until death, measured from the time of injection of the picrotoxin.

[2] = system: perfused rat stomach; experiment: gastrinic activity on perfused rat stomach, conductometric titration of HCl liberated after iv administration; type: in vivo
Method: (§1) To determine the effectiveness of the various synthetic peptides, they are tested for their ability to stimulate the contraction of the gall bladder, for gastrinic activity in the stomach and for their anticonvulsive effect. Certain well known tests are carried out, and the results are measured and compared to the activity of CCK(1-8). Some of the results are given as a percentage relative to the activity of CCK(1-8). The ability to stimulate the contraction of the gall bladder is measured using a modified method of Amer and Becvar, described in J. Endocrinology, 43, 637 (1969) and employing isolated strips of rabbit gall bladder.

[3] = system: isolated strips of rabbit gall bladder; experiment: contraction of the gall bladder (CCK-activity), isolated strips of rabbit gall bladder; type: cell-based
Method: as §1

[4] = Ondetti and Pluscec; cited from earlier work
[5] = system: secretion of gastric acid; settings: i.v. at low dosages; cited from earlier work
[6] = system: muscle sphincter Oddii; settings: cited from earlier work

Row | Compound | Delay until first tonic seizure (efficacy) [1] | Delay until time of death (efficacy) [1] | gastrinic activity % /Pentagastrin 100%/ ([2]; relative to pentagastrin = 100%, perfused rat stomach, iv) | CCK-activity % /CCK (1-8) 100%/ ([3]; relative to CCK(1-8) = 100%, contraction of isolated rabbit gall bladder strips) | gastrinic activity ([2]; result in words) | CCK activity compared with CCK(1-8) ([3]; result in words) | activity compared with the complete molecule of cholecystokinin-pancreozymin [4] | gastrinic activity in causing secretion of gastric acid [5] | action on the muscle sphincter Oddii [6]
1 | CSCC[C@H](NC(=O)[C@H](Cc1c[nH]c2ccccc12)NC(=O)[C@@H](C)NC(=O)[C@H](CCSC)NC(=O)[C@H](Cc1ccc(OS(=O)(=O)O)cc1)NC(C)=O)C(=O)N[C@@H](CC(=O)O)C(=O)N[C@@H](Cc1ccccc1)C(N)=O [[D-Ala^4]-Ac-CCK (2-8), Ac--Tyr(OSO3 Na)--Met--D--Ala--Trp--Met--Asp--Phe--NH2] (Ac-[sY]M[dA]WMDF-NH2) | 100% | 126% | 0% | 40% |  |  |  |  | 
2 | H--Asp--Tyr(OSO3 Na)--Nle--Gly--Trp--Nle--Hyp(OSO3 Na)--Tyr(OCH3)--NH2 |  |  |  |  | substantially no gastrinic activity | CCK activity significantly greater than CCK(1-8) |  |  | 
3 | CSCC[C@H](NC(=O)[C@H](Cc1ccc(OS(=O)(=O)O)cc1)NC(=O)[C@@H](N)CC(=O)O)C(=O)NCC(=O)N[C@@H](Cc1c[nH]c2ccccc12)C(=O)N[C@@H](CCSC)C(=O)N[C@@H](CC(=O)O)C(=O)N[C@@H](Cc1ccccc1)C(N)=O [CCK (1-8)] | 100% | 100% |  |  |  |  | considerably higher activity than the complete molecule of cholecystokinin-pancreozymin | some gastrinic activity | strong relaxing action
